According to patent US10336746B1, “RAD51 inhibitors” (Cyteir Therapeutics, Inc., priority 2017, dated 2019):
Where two headings read alike, the source gives them in different places.

Columns and labels:
[1] = tested on: KG-1 (Leukemia); experiment: Cell line screen, KG-1; assay type: cell-based; details: AICDA Expression Negative
Method: (§1) The activity of the claimed compounds was measured in a variety of cell lines with different expression levels of activation induced cytidine deaminase (AICDA). The potency assay was repeated in all of the listed cell lines and the EC50 values recorded.

[2] = tested on: WSU-FSCCL (Lymphoma); experiment: Cell line screen, WSU-FSCCL; assay type: cell-based; details: AICDA Expression Negative
Method: as §1

[3] = tested on: KYSE-510 (Head and Neck); experiment: Cell line screen, KYSE-510; assay type: cell-based; details: Homo sapiens, AICDA Expression Negative
Method: as §1

[4] = tested on: TOV-1120D (Ovary); experiment: Cell line screen, TOV-1120D; assay type: cell-based; details: AICDA Expression Negative
Method: as §1

[5] = tested on: SNU-5 (Gastric); experiment: Cell line screen, SNU-5; assay type: cell-based; details: Homo sapiens, AICDA Expression Low
Method: as §1

[6] = tested on: OV56 (Ovary); experiment: Cell line screen, OV56; assay type: cell-based; details: AICDA Expression Low
Method: as §1

[7] = tested on: KYSE-70 (Head and Neck); experiment: Cell line screen, KYSE-70; assay type: cell-based; details: Homo sapiens, AICDA Expression Low
Method: as §1

[8] = tested on: Daudi (Lymphoma); experiment: Cell line screen, Daudi; assay type: cell-based; details: Homo sapiens, AICDA Expression High
Method: as §1

[9] = tested on: CCRF-SB (Leukemia); experiment: Cell line screen, CCRF-SB; assay type: cell-based; details: Homo sapiens, AICDA Expression High
Method: as §1

[10] = Pharmacokinetic (PK) study, plasma by LC-MS; assay type: in vivo, Rat; details: po @ 80 mg/kg (30% PEG400, 10% Vitamin E TPGS in water); for half-life: plasma
Method: PK studies in mice were used to determine the fate of the compounds in a whole organism. Rats were treated with the compounds either orally of via IV at the indicated doses and followed for up to 24 hours. Plasma samples were taken at different time points and analyzed by LC-MS.

[11] = tested on: U-698-M (Lymphoma); experiment: Cell line screen, U-698-M; assay type: cell-based; details: AICDA Expression High
Method: as §1

[12] = tested on: WI-38 (Normal Human Lung Fibroblast); experiment: Cell line screen, WI-38; assay type: cell-based; details: AICDA Expression Negative
Method: as §1

[13] = tested on: WI-38 cells (AID negative); experiment: Primary screening cell killing assay repeated in WI-38 cells (AID negative); assay type: cell-based; details: Homo sapiens, 168 h, cell death on Day 7, Cell-Titer Glo
How it was run: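 Cell-killing counter-screen in AID-negative WI-38 cells, probing RAD51 inhibition via AID/RAD51 synthetic lethality. Viability luminescence (RLU) was media-subtracted, normalized to DMSO wells, and converted to percent kill (1 − normalized RLU) × 100; EC50 came from non-linear regression on a semi-log scale.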

[14] = tested on: ARPE19/HPV16 (HPV Immortalized RPE); experiment: Cell line screen, ARPE19/HPV16; assay type: cell-based; details: ARPE-19, AICDA Expression Negative
Method: as §1

[15] = Bi-directional Caco-2 permeability; assay type: in vitro ADME; details: human; for efflux ratio at 90 min: Caco-2, read-out: BA/AB Ratio; for Papp A→B at 90 min: Caco-2, apical to basolateral, read-out: AB Papp (cm/sec × 10^6); for Papp A→B at 90 min / Papp B→A at 90 min: 37 C, up to 90 minutes; for Papp B→A at 90 min: Caco-2, basolateral to apical, read-out: BA Papp (cm/sec × 10^6)
Method: Bi-directional Caco-2 permeability was assayed. Caco-2 cells were seeded onto permeable polycarbonate supports and allowed to differentiate for about 3 weeks prior to being used in the assays. The cells were then exposed to the compounds from either the apical or basolateral sides and incubated at 37 C for up to 90 minutes under light agitation. Compound transport was then measured using LC/MS/MS analysis at 30, 60, and 90 minutes.

[16] = Human liver microsome stability; assay type: in vitro ADME; details: human liver microsomes; for half-life / microsomal CLint: 37° C., 45 minutes; for microsomal CLint: read-out: Clearance (μg/min/mg)
Method: The stability of the claimed compounds was determined in the presences of human liver microsomes. The compounds were incubated with the microsomes at 37° C. for 45 minutes. Samples were analyzed using LC-MS/MS. Data analysis included half-life, clearance rate, and the percentage of hepatic blood flow (% QH) for each of the compounds in the different species.

[17] = tested on: SNU-1 (Gastric); experiment: Cell line screen, SNU-1; assay type: cell-based; details: Homo sapiens, SNU1, AICDA Expression Negative
Method: as §1

[18] = Caco-2, Caco-2, AB direction, read-out: AB Recovery %
[19] = Caco-2, Caco-2, BA direction, read-out: BA Recovery %

SMILES	EC50 [1]	EC50 [2]	EC50 [3]	EC50 [4]	EC50 [5]	EC50 [6]	EC50 [7]	EC50 [8]	EC50 [9]	F (%) @ 5 mg/kg ([10]; Rat Female)	F (%) @ 5 mg/kg ([10]; Rat Male)	half-life ([10]; Rat Female)	half-life ([10]; Rat Male)	EC50 [11]	EC50 [12]	EC50 [13]	EC50 [14]	recovery at 90 min [15, 18]	recovery at 90 min [15, 19]	efflux ratio at 90 min [15]	further results
CC(C)OC(=O)N[C@H]1CC[C@H](c2ncc(-c3ccc(NC(=O)NCc4ccccc4)cc3S(=O)(=O)NC(C)(C)C)s2)CC1 [Ex. 66A, trans-isopropyl N-[4-[5-[4-(benzylcarbamoylamino)-2-(tert-butylsulfamoyl)phenyl]thiazol-2-yl]cyclohexyl]carbamate]	3.07 µM	0.025 µM	4.52 µM	2.38 µM	2.94 µM	5.94 µM	2.64 µM	0.018 µM	0.183 µM	3.31%	2.55%	2.59 h	1.86 h	0.088 µM	> 10 µM	> 1 µM	> 10 µM	64.9%	81.2%	1.4	Papp A→B at 90 min [15]: 2.9 ×10⁻⁶ cm/s; Papp B→A at 90 min [15]: 3.9 ×10⁻⁶ cm/s; % QH (percentage of hepatic blood flow) [16]: 49.6%; half-life [16]: 1.29 h; microsomal CLint [16]: 18.2 µL/min/mg; EC50 [17]: 0.609 µM
CC(C)OC(=O)Nc1ccc(-c2cnc([C@H]3CC[C@H](NC(=O)OC(C)C)CC3)s2)c(S(=O)(=O)NC(C)(C)C)c1 [Ex. 67A, trans-isopropyl N-[3-(tert-butylsulfamoyl)-4-[2-[4-(isopropoxycarbonylamino)cyclohexyl]thiazol-5-yl]phenyl]carbamate]	3 µM	0.344 µM	3.4 µM	4.92 µM	3.85 µM	7.23 µM	2.63 µM	0.311 µM	0.932 µM	86.5%	46.9%	11.5 h	6.46 h	0.791 µM	> 10 µM	> 1 µM	> 10 µM	50.7%	78.6%	0.7	Papp A→B at 90 min [15]: 10.5 ×10⁻⁶ cm/s; Papp B→A at 90 min [15]: 6.9 ×10⁻⁶ cm/s; % QH (percentage of hepatic blood flow) [16]: <20.3%; half-life [16]: > 5 h; microsomal CLint [16]: < 4.6 µL/min/mg; EC50 [17]: 2.93 µM
